Measured values taken from PMC4406737, “Meroterpenoid Chrodrimanins Are Selective and Potent Blockers of Insect GABA-Gated Chloride Channels” (PLoS ONE, 2015).

Columns and labels:
[1] = molecular target: T1, B. mori GABAR RDL (wild-type isoform, exon 3b and exon 6d) (Bombyx mori, UniProt U3TMA1); assay: two-electrode voltage clamp, Xenopus oocytes, block of GABA peak current; assay type: cell-based
T1 construct: full cDNA in pcDNA3.1, cRNA expressed in Xenopus laevis oocytes; RDL injected alone (homomer)
T1 sequence (U3TMA1 29-482): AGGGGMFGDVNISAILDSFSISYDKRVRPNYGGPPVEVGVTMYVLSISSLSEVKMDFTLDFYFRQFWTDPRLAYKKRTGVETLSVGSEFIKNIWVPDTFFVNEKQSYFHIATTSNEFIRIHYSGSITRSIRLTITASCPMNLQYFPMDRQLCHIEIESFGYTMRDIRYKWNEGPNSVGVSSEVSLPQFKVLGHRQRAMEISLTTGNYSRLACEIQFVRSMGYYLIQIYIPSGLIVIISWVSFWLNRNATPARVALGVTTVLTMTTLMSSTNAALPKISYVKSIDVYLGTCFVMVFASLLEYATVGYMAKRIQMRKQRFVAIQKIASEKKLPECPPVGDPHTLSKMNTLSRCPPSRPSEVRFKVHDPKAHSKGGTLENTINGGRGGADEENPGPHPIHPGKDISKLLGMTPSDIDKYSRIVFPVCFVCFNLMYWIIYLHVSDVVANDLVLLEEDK

[2] = molecular target: T1, B. mori GABAR RDL (wild-type isoform, exon 3b and exon 6d); assay: two-electrode voltage clamp, Xenopus oocytes, agonist concentration-response; assay type: cell-based

SMILES	IC50 [1] [µM]	EC50 [2] [µM]
N#Cc1nn(-c2c(Cl)cc(C(F)(F)F)cc2Cl)c(N)c1[S+]([O-])C(F)(F)F (centres unmarked) [fipronil]	0.0394	–
NCCCC(=O)O [GABA]	–	41.1
